Measured values: patent publication US20200216439A1, “HETERO-1,5,6,7-TETRAHYDRO-4H-INDOL-4-ONES” (BAYER PHARMA AKTIENGESELLSCHAFT, priority 2015, published 2020)

target: T1, catalytic domain of human Bub1 (amino acids 704-1085) (Homo sapiens, UniProt O43683); assay: Bub1 kinase assay (TR-FRET); type: biochemical; conditions: TR-FRET; ATP 10 μM, peptide substrate 1 μM; 60 min at 22° C.; average or median if tested more than once; read-out: Inhibition of Bub1 kinase IC50
T1 construct: catalytic domain of human Bub1 (amino acids 704-1085); His6 (N); made in house; host or cells: Hi5 insect cells
In short: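 Eleven concentrations (0.1 nM–20 μM, duplicate) fitted by 4-parameter logistic for IC50. Read-out: EDTA-stopped TR-FRET (665/620 nm) detecting anti-phosphoserine binding to biotin-peptide (1 μM). Reaction used 10 μM ATP, 60 min at 22 °C, after 15 min compound preincubation with His-tagged human Bub1 704-1085.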

T1 sequence (O43683 704-1085): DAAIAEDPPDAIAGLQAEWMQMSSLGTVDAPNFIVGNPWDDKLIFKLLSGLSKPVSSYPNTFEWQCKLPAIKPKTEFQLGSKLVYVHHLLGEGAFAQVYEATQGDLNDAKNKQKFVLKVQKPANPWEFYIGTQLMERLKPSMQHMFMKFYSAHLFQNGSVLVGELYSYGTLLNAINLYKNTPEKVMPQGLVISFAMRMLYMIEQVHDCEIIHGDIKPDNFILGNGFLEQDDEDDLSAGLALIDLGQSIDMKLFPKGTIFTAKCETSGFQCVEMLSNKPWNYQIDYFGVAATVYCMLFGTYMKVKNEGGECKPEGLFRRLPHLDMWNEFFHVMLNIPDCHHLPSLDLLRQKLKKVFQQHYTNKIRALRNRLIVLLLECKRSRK

| IC50 [nM] | Compound |
| --- | --- |
| 81 | Cc1cc(F)ccc1C(=O)Nc1cc(-c2[nH]c3c(c2Nc2ccccc2)C(=O)CNC3)ccn1 [Example 264, 4-Fluoro-2-methyl-N-4-[4-oxo-3-(phenylamino)-4,5,6,7-tetrahydro-1H-pyrrolo[2,3-c]pyridin-2-yl]pyridin-2-ylbenzamide] |
| 6 | CC(=O)N1CC(=O)c2c([nH]c(-c3ccnc(NC(=O)c4ccc(F)cc4C)c3)c2Nc2ccccc2)C1 [Example 265, N-4-[6-Acetyl-4-oxo-3-(phenylamino)-4,5,6,7-tetrahydro-1H-pyrrolo[2,3-c]pyridin-2-yl]pyridin-2-yl-4-fluoro-2-methylbenzamide] |
| 72 | COc1ccc(C(=O)Nc2cc(-c3[nH]c4c(c3Nc3ccccc3)C(=O)CN(C(=O)OC(C)(C)C)C4)ccn2)c(C)c1 [Example 266, tert-Butyl 2-2-[(4-methoxy-2-methylbenzoyl)amino]pyridin-4-yl-4-oxo-3-(phenylamino)-1,4,5,7-tetrahydro-6H-pyrrolo[2,3-c]pyridine-6-carboxylate] |
| 58 | Cc1ccc(F)cc1C(=O)Nc1cc(-c2[nH]c3c(c2Nc2ccccc2)C(=O)CN(C(=O)OC(C)(C)C)C3)ccn1 [Example 268, tert-Butyl 2-2-[(5-fluoro-2-methylbenzoyl)amino]pyridin-4-yl-4-oxo-3-(phenylamino)-1,4,5,7-tetrahydro-6H-pyrrolo[2,3-c]pyridine-6-carboxylate] |
| 149 | Cc1ccc(F)cc1C(=O)Nc1cc(-c2[nH]c3c(c2Nc2ccccc2)C(=O)CNC3)ccn1 [Example 269, 5-Fluoro-2-methyl-N-4-[4-oxo-3-(phenylamino)-4,5,6,7-tetrahydro-1H-pyrrolo[2,3-c]pyridin-2-yl]pyridin-2-ylbenzamide] |
| 37 | COc1ccc(C(=O)Nc2cc(-c3[nH]c4c(c3Nc3ccccc3)C(=O)CN(C(=O)OC(C)(C)C)C4)ccn2)cc1 [Example 270, tert-Butyl 2-2-[(4-methoxybenzoyl)amino]pyridin-4-yl-4-oxo-3-(phenylamino)-1,4,5,7-tetrahydro-6H-pyrrolo[2,3-c]pyridine-6-carboxylate] |
| 5 | CC(=O)N1CC(=O)c2c([nH]c(-c3ccnc(NC(=O)c4ccc(F)cc4)c3)c2Nc2ccccc2)C1 [Example 271, N-4-[6-Acetyl-4-oxo-3-(phenylamino)-4,5,6,7-tetrahydro-1H-pyrrolo[2,3-c]pyridin-2-yl]pyridin-2-yl-4-fluorobenzamide] |
| 4 | CN(C)S(=O)(=O)N1CC(=O)c2c([nH]c(-c3ccnc(NC(=O)[C@@H]4C[C@@H]4F)c3)c2Nc2ccccc2)C1 [Example 272, (1S,2S)—N-4-[6-(Dimethylsulfamoyl)-4-oxo-3-(phenylamino)-4,5,6,7-tetrahydro-1H-pyrrolo[2,3-c]pyridin-2-yl]pyridin-2-yl-2-fluorocyclopropanecarboxamide] |
| 11 | CN(C)S(=O)(=O)N1CC(=O)c2c([nH]c(-c3ccnc(NC(=O)C4(F)CC4)c3)c2Nc2ccccc2)C1 [Example 273, N-4-[6-(Dimethylsulfamoyl)-4-oxo-3-(phenylamino)-4,5,6,7-tetrahydro-1H-pyrrolo[2,3-c]pyridin-2-yl]pyridin-2-yl-1-fluorocyclopropanecarboxamide] |
| 10 | CC(C)(C)OC(=O)N1CC(=O)c2c([nH]c(-c3ccnc(NC(=O)c4cnn[nH]4)c3)c2Nc2ccccc2)C1 [Example 274, tert-Butyl 4-oxo-3-(phenylamino)-2-2-[(1H-1,2,3-triazol-5-ylcarbonyl)amino]pyridin-4-yl-1,4,5,7-tetrahydro-6H-pyrrolo[2,3-c]pyridine-6-carboxylate] |
| 113 | O=C(Nc1cc(-c2[nH]c3c(c2Nc2ccccc2)C(=O)CNC3)ccn1)c1cnn[nH]1 [Example 275, N-4-[4-Oxo-3-(phenylamino)-4,5,6,7-tetrahydro-1H-pyrrolo[2,3-c]pyridin-2-yl]pyridin-2-yl-1H-1,2,3-triazole-5-carboxamide] |
| 7 | CN(C)CCOc1cnccc1-c1[nH]c2c(c1Nc1ccccc1)C(=O)CN(C(=O)OC(C)(C)C)C2 [Example 276, tert-Butyl 2-3-[2-(dimethylamino)ethoxy]pyridin-4-yl-4-oxo-3-(phenylamino)-1,4,5,7-tetrahydro-6H-pyrrolo[2,3-c]pyridine-6-carboxylate] |
| 102 | CN(C)CCOc1cnccc1-c1[nH]c2c(c1Nc1ccccc1)C(=O)CNC2 [Example 277, 2-3-[2-(Dimethylamino)ethoxy]pyridin-4-yl-3-(phenylamino)-1,5,6,7-tetrahydro-4H-pyrrolo[2,3-c]pyridin-4-one] |
| 23 | CC(=O)N1CC(=O)c2c([nH]c(-c3ccncc3OCCN(C)C)c2Nc2ccccc2)C1 [Example 278, 6-Acetyl-2-3-[2-(dimethylamino)ethoxy]pyridin-4-yl-3-(phenylamino)-1,5,6,7-tetrahydro-4H-pyrrolo[2,3-c]pyridin-4-one] |
| 6 | CN(C)CCOc1cnccc1-c1[nH]c2c(c1Nc1ccccc1)C(=O)CN(S(=O)(=O)N(C)C)C2 [Example 279, 2-3-[2-(Dimethylamino)ethoxy]pyridin-4-yl-N,N-dimethyl-4-oxo-3-(phenylamino)-1,4,5,7-tetrahydro-6H-pyrrolo[2,3-c]pyridine-6-sulfonamide] |
| 6 | COCCOc1cnccc1-c1[nH]c2c(c1Nc1ccccc1)C(=O)CN(S(=O)(=O)N(C)C)C2 [Example 280, 2-[3-(2-Methoxyethoxy)pyridin-4-yl]-N,N-dimethyl-4-oxo-3-(phenylamino)-1,4,5,7-tetrahydro-6H-pyrrolo[2,3-c]pyridine-6-sulfonamide] |
| 10 | CN(C)S(=O)(=O)N1CC(=O)c2c([nH]c(-c3ccncc3OCC(F)F)c2Nc2ccccc2)C1 [Example 281, 3-Anilino-2-[3-(2,2-difluoroethoxy)pyridin-4-yl]-N,N-dimethyl-4-oxo-1,4,5,7-tetrahydro-6H-pyrrolo[2,3-c]pyridine-6-sulfonamide] |
| 12 | CN(C)S(=O)(=O)N1CC(=O)c2c([nH]c(-c3ccncc3OCC3CC3)c2Nc2ccccc2)C1 [Example 282, 2-[3-(Cyclopropylmethoxy)pyridin-4-yl]-N,N-dimethyl-4-oxo-3-(phenylamino)-1 4,5,7-tetrahydro-6H-pyrrolo[2,3-c]pyridine-6-sulfonamide] |
| 38 | COc1ccc(C(=O)Nc2cc(-c3[nH]c4c(c3Nc3ccccc3)C(=O)CN(C(=O)OC(C)(C)C)C4)ccn2)cc1F [Example 283, tert-Butyl 2-2-[(3-fluoro-4-methoxybenzoyl)amino]pyridin-4-yl-4-oxo-3-(phenylamino)-1,4,5,7-tetrahydro-6H-pyrrolo[2,3-c]pyridine-6-carboxylate] |
| 52 | COc1ccc(C(=O)Nc2cc(-c3[nH]c4c(c3Nc3ccccc3)C(=O)CNC4)ccn2)cc1F [Example 284, 3-Fluoro-4-methoxy-N-4-[4-oxo-3-(phenylamino)-4,5,6,7-tetrahydro-1H-pyrrolo[2,3-c]pyridin-2-yl]pyridin-2-ylbenzamide] |
| 6 | COc1ccc(C(=O)Nc2cc(-c3[nH]c4c(c3Nc3ccccc3)C(=O)CN(C(C)=O)C4)ccn2)cc1F [Example 285, N-4-[6-Acetyl-4-oxo-3-(phenylamino)-4,5,6,7-tetrahydro-1H-pyrrolo[2,3-c]pyridin-2-yl]pyridin-2-yl-3-fluoro-4-methoxybenzamide] |
| 1050 | COc1ccc(C(=O)Nc2cc(-c3c(Nc4ccccc4)c4c(n3C)CN(C(=O)OC(C)(C)C)CC4=O)ccn2)cc1F [Example 286, tert-Butyl 2-2-[(3-fluoro-4-methoxybenzoyl)amino]pyridin-4-yl-1-methyl-4-oxo-3-(phenylamino)-1,4,5,7-tetrahydro-6H-pyrrolo[2,3-c]pyridine-6-carboxylate] |
| 2060 | COc1ccc(C(=O)Nc2cc(-c3c(Nc4ccccc4)c4c(n3C)CNCC4=O)ccn2)cc1F [Example 287, 3-Fluoro-4-methoxy-N-4-[1-methyl-4-oxo-3-(phenylamino)-4,5,6,7-tetrahydro-1H-pyrrolo[2,3-c]pyridin-2-yl]pyridin-2-ylbenzamide] |
| 404 | COc1ccc(C(=O)Nc2cc(-c3c(Nc4ccccc4)c4c(n3C)CN(C(C)=O)CC4=O)ccn2)cc1F [Example 288, N-4-[6-Acetyl-1-methyl-4-oxo-3-(phenylamino)-4,5,6,7-tetrahydro-1H-pyrrolo[2,3-c]pyridin-2-yl]pyridin-2-yl-3-fluoro-4-methoxybenzamide] |
| 6 | COc1ccc(C(=O)Nc2cc(-c3[nH]c4c(c3Nc3ccccc3)C(=O)CN(S(=O)(=O)N(C)C)C4)ccn2)cc1F [Example 289, N-4-[6-(Dimethylsulfamoyl)-4-oxo-3-(phenylamino)-4,5,6,7-tetrahydr-1H-pyrrolo[2,3-c]pyridin-2-yl]pyridin-2-yl-3-fluoro-4-methoxybenzamide] |
| 73 | COc1ccc(C(=O)Nc2cc(-c3c(Nc4ccccc4)c4c(n3C)CN(S(=O)(=O)N(C)C)CC4=O)ccn2)cc1F [Example 290, N-4-[6-(Dimethylsulfamoyl)-1-methyl-4-oxo-3-(phenylamino)-4,5,6,7-tetrahydro-1H-pyrrolo[2,3-c]pyridin-2-yl]pyridin-2-yl-3-fluoro-4-methoxybenzamide] |
| 6 | COc1ccc(C(=O)Nc2cc(-c3[nH]c4c(c3Nc3ccccc3)C(=O)CN(C(=O)N3CCOCC3)C4)ccn2)cc1F [Example 291, 3-Fluoro-4-methoxy-N-4-[6-(morpholin-4-ylcarbonyl)-4-oxo-3-(phenylamino)-4,5,6,7-tetrahydro-1H-pyrrolo[2,3-c]pyridin-2-yl]pyridin-2-ylbenzamide] |
